Data from patent US20240301319A1, “PERFUMING COMPOSITIONS” (FIRMNICH SA, priority 2017, published 2024).
Structures can show the parent of a compound that is named as a salt.

What was measured:
[1] = Volatility of perfuming compounds (Tables 4 to 10), with top/middle/bottom note type; format: physicochemical
Outline: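 Note type follows from air volatility (μg/l): bottom 49–0.1, middle 99–50, top 70,000–100. Compounds are listed within watery, green, fruity, citrus, sweet, gourmand and woody families.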

[2] = Odor threshold and odor value of perfuming compounds (Tables 4 to 10)
[3] = Table 4, watery note, top, middle or bottom note
[4] = note type (Top/Middle/Bottom) by volatility, perfuming compounds having a green note
[5] = perfuming compounds having a green note
[6] = Table 4, watery note, equals volatility divided by odor threshold
[7] = Table 7, citrus note, top, middle or bottom note
[8] = Table 7, citrus note, equals volatility divided by odor threshold
[9] = Table 6, perfuming compounds having a fruity note
[10] = Table 6, perfuming compounds having a fruity note, note type by volatility
[11] = Table 8, perfuming compounds having a sweet note
[12] = Table 8, perfuming compounds having a sweet note, note type by volatility
[13] = Table 9, perfuming compounds having a gourmand note, note type by volatility
[14] = Table 10, perfuming compounds having a woody note, note type by volatility

Question: What does the source list for `COc1ccc(CC(C)C=O)cc1` (racemic) [(+−)-3-(4-methoxyphenyl)-2-methylpropanal]?
Answer: Volatility (μg/l air) ([1]; Table 4, watery note): 18.99 μg/l air; Type [1, 3]: bottom (perfuming compounds having a volatility ranging from 49 to 0.1 μg/l in air are referred to as “bottom notes”); Type [1, 4]: Bottom; Volatility (μg/l air) [1, 5]: 18.99 μg/l air; Odor Threshold (μg/l air) ([2]; Table 4, watery note): 9.79E−03 μg/l air; Odor Value [2, 6]: 1.94E+03; Odor Threshold (μg/l air) [2, 5]: 9.79E−03 μg/l air

Question: Which “Volatility (μg/l air)” value ([1]; Table 7, citrus note) does the source give for `CC1=CCC(C(C)C)=CC1` [1-methyl-4-(2-propanyl)-1,4-cyclohexadiene] here?
Answer: 4298.67 μg/l air

Question: What about the Type [1, 7] of the same molecule?
Answer: Top

Question: What about the “Odor Threshold (μg/l air)” value ([2]; Table 7, citrus note) of the same molecule?
Answer: 1.16E−01 μg/l air

Question: And the “Odor Value” [2, 8]?
Answer: 3.70E+04

Question: What does the source list for `CCCCCC(=O)OCC` [ETHYL HEXANOATE]?
Answer: Volatility [1, 9]: 9675.10 μg/l air; Type [1, 10]: TOP (perfuming compounds having a volatility ranging from 70,000 to 100 μg/l in air are referred to as “top notes”); Volatility [1, 11]: 9675.10 μg/l air; Type [1, 12]: Top; Volatility ([1]; Table 9, gourmand note): 9675.10 μg/l air; Type [1, 13]: Top; Type [1, 4]: Top; Volatility (μg/l air) [1, 5]: 9675.10 μg/l air; Odor Threshold [2, 11]: 9.11E−04 μg/l air; Odor Value [2, 11]: 1.06E+07; Odor Threshold ([2]; Table 9, gourmand note): 9.11E−04 μg/l air; Odor Threshold (μg/l air) [2, 5]: 9.11E−04 μg/l air

Question: Which Type [1, 4] does the source give for `CC/C=C\CCOC(C)=O` [(Z)-3-HEXENYL ACETATE] here?
Answer: Top

Question: What about the “Volatility (μg/l air)” value [1, 5] of the same molecule?
Answer: 3398.34 μg/l air

Question: What about the “Odor Threshold (μg/l air)” value [2, 5] of the same molecule?
Answer: 1.00E−02 μg/l air

Question: What does the source list for `CCCCCCCCC1CCC(=O)O1` (racemic) [(+−)-5-octyldihydro-2(3H)-furanone]?
Answer: Volatility [1, 9]: 1.44 μg/l air; Type [1, 10]: Bottom; Odor Threshold [2, 9]: 2.85E−05 μg/l air; Odor Value [2, 9]: 5.05E+04

Question: With `COCC(C)Cc1ccccc1` (racemic) [(+−)-(3-methoxy-2-methylpropyl)benzene] as the molecule, how does the Volatility [1, 9] read?
Answer: 587.76 μg/l air

Question: What about the Type [1, 10] of the same molecule?
Answer: TOP (perfuming compounds having a volatility ranging from 70,000 to 100 μg/l in air are referred to as “top notes”)

Question: What about the “Volatility (μg/l air)” value ([1]; Table 7, citrus note) of the same molecule?
Answer: 587.76 μg/l air

Question: What about the Type [1, 7] of the same molecule?
Answer: Top

Question: And the Type [1, 4]?
Answer: Top

Question: And the “Volatility (μg/l air)” value [1, 5]?
Answer: 587.76 μg/l air

Question: And the “Odor Threshold (μg/l air)” value ([2]; Table 7, citrus note)?
Answer: 1.51E−02 μg/l air

Question: What about the “Odor Value” [2, 8] of the same molecule?
Answer: 3.89E+04

Question: And the “Odor Threshold (μg/l air)” value [2, 5]?
Answer: 1.51E−02 μg/l air

Question: Which results are given for `COC(C)(C)[C@H]1CC=C(C)CC1`?
Answer: Type [1, 4]: Top; Volatility (μg/l air) [1, 5]: 993.39 μg/l air; Odor Threshold (μg/l air) [2, 5]: 1.99E−01 μg/l air

Question: With `CC(=O)O[C@@H]1C(C)(C)CCC[C@]12CC=C(C)C[C@H]2C` (racemic) as the molecule, how does the Type [1, 14] read?
Answer: Bottom

Question: What about the Volatility ([1]; Table 10, woody note) of the same molecule?
Answer: 8.25 μg/l air

Question: What about the “Odor Threshold” value ([2]; Table 10, woody note) of the same molecule?
Answer: 3.79E−03 μg/l air

Question: Which results are given for `CC(OC=O)C1CCCC(C)(C)C1` (stereo not shown) [1-(3,3-DIMETHYL-1-CYCLOHEXYL)ETHYL FORMATE]?
Answer: Volatility (μg/l air) ([1]; Table 7, citrus note): 1129.46 μg/l air; Type [1, 7]: Top; Odor Threshold (μg/l air) ([2]; Table 7, citrus note): 2.05E−01 μg/l air; Odor Value [2, 8]: 5.50E+03

Question: Which Type [1, 14] does the source give for `CC(=O)/C=C/C1C(C)CCC(C)C1(C)C` (racemic) here?
Answer: Bottom

Question: And the Volatility ([1]; Table 10, woody note)?
Answer: 20.50 μg/l air

Question: What about the “Odor Threshold” value ([2]; Table 10, woody note) of the same molecule?
Answer: 5.14E−04 μg/l air

Question: Which “Volatility (μg/l air)” value ([1]; Table 4, watery note) does the source give for `CCCCCCCCCCCC#N` [DODECANENITRILE] here?
Answer: 56.74 μg/l air

Question: And the Type [1, 3]?
Answer: middle (perfuming compounds having a volatility ranging from 99 to 50 μg/l in air are referred to as “middle notes”)

Question: What about the “Odor Threshold (μg/l air)” value ([2]; Table 4, watery note) of the same molecule?
Answer: 3.20E−06 μg/l air

Question: What about the “Odor Value” [2, 6] of the same molecule?
Answer: 1.77E+07

Question: Which “Volatility (μg/l air)” value ([1]; Table 4, watery note) does the source give for `CCCCCCCCCCCC=O` [DODECANAL] here?
Answer: 144.79 μg/l air

Question: And the Type [1, 3]?
Answer: TOP (perfuming compounds having a volatility ranging from 70,000 to 100 μg/l in air are referred to as “top notes”)

Question: And the “Odor Threshold (μg/l air)” value ([2]; Table 4, watery note)?
Answer: 9.90E−04 μg/l air

Question: What about the “Odor Value” [2, 6] of the same molecule?
Answer: 1.46E+05

Question: What does the source list for `CCCCCCCC1CCCC(=O)O1` (racemic) [(+−)-6-heptyltetrahydro-2H-pyran-2-one]?
Answer: Volatility [1, 9]: 0.90 μg/l air; Type [1, 10]: Bottom; Volatility [1, 11]: 0.90 μg/l air; Type [1, 12]: Bottom; Volatility ([1]; Table 9, gourmand note): 0.90 μg/l air; Type [1, 13]: Bottom; Odor Threshold [2, 9]: 1.27E−04 μg/l air; Odor Value [2, 9]: 7.06E+03; Odor Threshold [2, 11]: 1.27E−04 μg/l air; Odor Value [2, 11]: 7.06E+03; Odor Threshold ([2]; Table 9, gourmand note): 1.27E−04 μg/l air

Question: With `CCCCCCOC(=O)c1ccccc1O` [HEXYL 2-HYDROXYBENZOATE] as the molecule, how does the Volatility [1, 9] read?
Answer: 3.82 μg/l air

Question: And the Type [1, 10]?
Answer: Bottom

Question: And the “Volatility (μg/l air)” value ([1]; Table 7, citrus note)?
Answer: 3.82 μg/l air

Question: And the Type [1, 7]?
Answer: Bottom

Question: What about the Type [1, 4] of the same molecule?
Answer: Bottom

Question: And the “Volatility (μg/l air)” value [1, 5]?
Answer: 3.82 μg/l air

Question: What about the “Odor Threshold” value [2, 9] of the same molecule?
Answer: 5.50E−03 μg/l air

Question: What about the “Odor Value” [2, 9] of the same molecule?
Answer: 6.95E+02

Question: And the “Odor Threshold (μg/l air)” value ([2]; Table 7, citrus note)?
Answer: 5.50E−03 μg/l air

Question: And the “Odor Value” [2, 8]?
Answer: 6.95E+02

Question: What about the “Odor Threshold (μg/l air)” value [2, 5] of the same molecule?
Answer: 5.50E−03 μg/l air

Question: What does the source list for `CC1(C)CC=C(CCC=O)CC1`?
Answer: Type [1, 4]: Top; Volatility (μg/l air) [1, 5]: 417.92 μg/l air; Odor Threshold (μg/l air) [2, 5]: 2.06E−03 μg/l air
